According to patent US11040963B2 (priority 2017, dated 2021):

Columns and labels:
H1N1 A/California/07/09 = assay: microbe, parasite or virus in culture; assay type: cell-based, influenza A virus
[1] = test system: H1N1 A/New Caledonia/20/99; assay: microbe, parasite or virus in culture; assay type: cell-based, influenza A virus
[2] = molecular target: HA H5 A/Vietnam/1203/04 (Influenza A virus (A/Vietnam/1203/2004(H5N1)), UniProt Q5EP31); assay: biochemical; conditions: Competition binding (AlphaLISA), pIC50 H5 A/Vietnam/1203/04
[3] = molecular target: HA H1 A/California/07/09 (Influenza A virus (A/California/07/2009(H1N1)), UniProt C3W5X2); assay: biochemical; conditions: Competition binding (AlphaLISA), pIC50 H1 A/California/07/09
[4] = molecular target: HA H1 A/New Caledonia/20/99 (Influenza A virus (A/New Caledonia/20/1999(H1N1)), UniProt Q6WG00); assay: biochemical; conditions: Competition binding (AlphaLISA), pIC50 H1 A/New Caledonia/20/99
MDCK cells = conditions: dog
H5N1 A/Vietnam/1203/04 = assay: microbe, parasite or virus in culture; assay type: cell-based, influenza A virus; conditions: 96 h, average of repeats; for Virus neutralization assay (VNA), pEC50 H5N1 A/Vietnam/1203/04: MDCK cells, CPE by ATPlite
H1N1 A/PR/8/34-MA = assay: microbe, parasite or virus in culture; assay type: cell-based, influenza A virus

SMILES | Virus neutralization assay (VNA), pEC50 H1N1 A/California/07/09 (H1N1 A/California/07/09) | Virus neutralization assay (VNA), pEC50 H1N1 A/New Caledonia/20/99 [1] | IC50 [2] | IC50 [3] | IC50 [4] | Cytotoxicity (pCC50) MDCK (MDCK cells) | Virus neutralization assay (VNA), pEC50 H5N1 A/Vietnam/1203/04 (H5N1 A/Vietnam/1203/04) | Virus neutralization assay (VNA), pEC50 H1N1 A/PR/8/34-MA (H1N1 A/PR/8/34-MA) | EC50 (H1N1 A/California/07/09; Influenza A virus, H1N1, MDCK, 96 h, read-out: Virus neutralization assay (VNA), pEC50 H1N1 A/California/07/09 (converted)) | EC50 ([1]; Influenza A virus, H1N1, MDCK, 96 h, read-out: Virus neutralization assay (VNA), pEC50 H1N1 A/New Caledonia/20/99 (converted)) | EC50 (H5N1 A/Vietnam/1203/04; Influenza A virus, H5N1, MDCK, read-out: Virus neutralization assay (VNA), pEC50 H5N1 A/Vietnam/1203/04, MDCK cells, 96 h, CPE by ATPlite (converted))
Cc1nnc([C@@H](c2ccccc2)N2CCN(C(=O)c3cccc(-c4nc5cc(C(F)(F)F)ccc5o4)c3)CC2)o1 [Example 69] | 6.4 | 6.2 | 2510 nM | 63.1 nM | 79.4 nM | 5.0 | 4.5 |  |  |  | 
COC(=O)[C@@H](c1ccccc1)N1CCN(C(=O)c2cccc(-c3nc4ccc(OC)cc4s3)c2)CC1 [Example 22] | 6.8 | 6.9 |  | 15.8 nM | 12.6 nM | <4.3 | 5.8 | 6.9 |  |  | 
COc1ccc2nc(-c3cccc(C(=O)N4CCN(C(C(C)=O)c5ccccc5)CC4)c3)sc2c1 (stereo not drawn) [Example 106] |  |  | 2000 nM | 398 nM | 200 nM | 4.4 |  |  | 3160 nM | 1000 nM | > 50100 nM
